Data published in PMC3740399, “Carfilzomib in multiple myeloma patients with renal impairment: pharmacokinetics and safety” (Leukemia, 2013).

Legend:
[1] = Urinary excretion of carfilzomib (LC MS/MS); format: in vivo, human
Protocol: Blood for plasma PK analysis was collected on days 1 and 15 of Cycle 1, and on day 15 of Cycle 2, before dosing (t=0), at the end of dosing, and at 5, 15 and 30 min and 1, 1.5, 2, 4, 6 and 24 h after dosing; urine samples were collected cumulatively over 0–5 h and 5–24 h on days 1 and 15 of Cycle 1 following administration of carfilzomib to determine carfilzomib concentrations. Carfilzomib concentrations were determined using validated liquid chromatography tandem mass spectrometry (LC MS/MS) methods with a calibration range of 0.300–300 ng/ml for plasma samples and 4.0–2000 ng/ml for urine samples. Plasma concentration of carfilzomib versus time was plotted on days 1 and 15 in Cycle 1, and PK parameters were calculated using a non-compartmental constant infusion method using WinNonlin (Pharsight, Sunnyvale, CA, USA). To determine whether renal impairment affected the PK of carfilzomib, the relationship between renal function status and relevant PK parameters was evaluated. Statistical comparison (analysis of variance) of the ln-transformed dose-adjusted PK parameters was also performed between patients with normal renal function and each group of patients with renal impairment. For these parameters, 90% confidence intervals (CI) were calculated for the ratios between least squares of the mean (LSM) for each group versus the normal renal function group (Group 1). […]

[2] = system: proteasome chymotrypsin-like activity; test: Proteasome chymotrypsin-like activity in whole blood (RBC) and PBMC, fluorogenic substrate (LLVY-AMC) assay; format: in vivo, human
Protocol: Proteasome chymotrypsin-like activity was measured in whole-blood (red blood cells, RBC) and isolated peripheral blood mononuclear cell samples using a fluorogenic-based substrate assay as previously described.[15] Blood for PDn analysis was collected before carfilzomib dosing and 1 h after carfilzomib dosing on days 1, 2 and 8 of Cycle 1 and on day 1 of Cycle 2.
Figure 2 Proteasome inhibition following the first dose of carfilzomib. Proteasome activity was measured in whole-blood and peripheral blood mononuclear cells before and 1 h after the first dose of 15 mg/m^2 carfilzomib on day 1 of Cycle 1 (using LLVY-AMC substrate). Data are presented as mean activity (±s.e.m.) relative to pre-dose values for each group. The number of patient samples for each Group is noted. Group 1, normal renal function; Group 2, mild renal impairment; Group 3, moderate renal impairment; Group 4, severe renal impairment; Group 5, chronic dialysis.

[3] = Safety: treatment-emergent adverse events (CTCAE Version 3.0); format: in vivo, human; conditions: for Anemia, Grades 3/4 / Decreased hemoglobin, Grades 3/4 / Dyspnea, Grades 3/4 / Fatigue, Grades 3/4 / Hypokalemia, Grades 3/4 / Lymphopenia, Grades 3/4 / Pain, Grades 3/4 / Pneumonia, Grades 3/4 / Thrombocytopenia, Grades 3/4: number of patients
Protocol: (§1) All patients who received at least one dose of carfilzomib were included in the safety population. Incidence, severity and duration of AEs, including all serious AEs and those considered to be treatment related, and shifts to or from abnormal relative to baseline in key laboratory parameters were categorized according to the National Cancer Institute's Common Terminology Criteria for Adverse Events (CTCAE) Version 3.0.[16] […] ECGs were performed in most patients to satisfy regulatory requirements, but were not required by the study protocol.

[4] = parameters: species or system human; conditions: in vivo
Protocol: as §1

[5] = system: relapsed and/or refractory multiple myeloma; test: Efficacy: best response (IMWG criteria with EBMT minimal response); format: in vivo, human; conditions: for Overall response rate: PR or better
Protocol: Patients who received at least 1 cycle of carfilzomib and had at least one post-baseline assessment for disease response were included in the efficacy analysis. Each evaluable patient's best response to treatment over the course of the study was evaluated by the investigator and sponsor using the International Myeloma Working Group Uniform Response Criteria, modified to include minimal response defined per the European Group for Blood and Marrow Transplantation.[17], [18] Responses assessed by the investigators at the end of the study are reported here. The overall response rate was defined as the proportion of PR or better responses, and the 95% Clopper-Pearson exact binomial CI was calculated. The duration of response was calculated as the time from the first evidence of a PR or better until confirmation of disease progression. Median time to progression and progression-free survival were assessed among all patients with >stable disease (s.d.). For progression-free survival, deaths due to causes other than disease progression were censored.

[6] = in vivo
Protocol: Carfilzomib was administered by IV infusion over 2–10 min on days 1, 2, 8, 9, 15 and 16 of a 28-day cycle for up to 12 cycles. The dose of carfilzomib in Cycle 1 was 15 mg/m^2. If this dose was tolerated, it was increased to 20 mg/m^2 at Cycle 2, and to 27 mg/m^2 at Cycle 3 and for all subsequent cycles as tolerated.
Blood for plasma PK analysis was collected on days 1 and 15 of Cycle 1, and on day 15 of Cycle 2, before dosing (t=0), at the end of dosing, and at 5, 15 and 30 min and 1, 1.5, 2, 4, 6 and 24 h after dosing; urine samples were collected cumulatively over 0–5 h and 5–24 h on days 1 and 15 of Cycle 1 following administration of carfilzomib to determine carfilzomib concentrations. Carfilzomib concentrations were determined using validated liquid chromatography tandem mass spectrometry (LC MS/MS) methods with a calibration range of 0.300–300 ng/ml for plasma samples and 4.0–2000 ng/ml for urine samples. Plasma concentration of carfilzomib versus time was plotted on days 1 and 15 in Cycle 1, and PK parameters were calculated using a non-compartmental constant infusion method using WinNonlin (Pharsight, Sunnyvale, CA, USA). To determine whether renal impairment affected the PK of carfilzomib, the relationship between renal function status and relevant PK parameters was evaluated. Statistical comparison (analysis of variance) of the ln-transformed dose-adjusted PK parameters was also performed between patients with normal renal function and each group of patients with renal impairment. For these parameters, 90% confidence intervals (CI) were calculated for the ratios between least squares of the mean (LSM) for each group versus the normal renal function group (Group 1). […] The primary PK parameters—apparent plasma clearance, dose-normalized AUCinf (total exposure), and the dose-normalized Cmax on day 1 and day 15 of Cycle 1—were also estimated as a function of CrCl by linear regression using a mixed-effects model (Y=β0+β1 × CrCl+β2 × Age+β3 × weight, where Y=PK parameter, β0 = intercept, and β1, β2 and β3 are slope parameters associated with CrCl, age and weight, respectively).

[7] = Group 1 (normal renal function), n=12
[8] = Group 2 (mild impairment), n=12
[9] = Group 3 (moderate impairment), n=10
[10] = Group 4 (severe impairment), n=8
[11] = Group 5 (chronic dialysis), n=8
[12] = All patients, n=28, patients who received dexamethasone ⩾20 mg before carfilzomib doses
[13] = All patients, n=47, all patients with response assessment
[14] = Group 1 (normal renal function), n=7, patients who received dexamethasone ⩾20 mg before carfilzomib doses
[15] = Group 1 (normal renal function), n=11, all patients with response assessment
[16] = Group 2 (mild impairment), n=8, patients who received dexamethasone ⩾20 mg before carfilzomib doses
[17] = Group 2 (mild impairment), n=11, all patients with response assessment
[18] = Group 3 (moderate impairment), n=4, patients who received dexamethasone ⩾20 mg before carfilzomib doses
[19] = Group 3 (moderate impairment), n=9, all patients with response assessment
[20] = Group 4 (severe impairment), n=5, patients who received dexamethasone ⩾20 mg before carfilzomib doses
[21] = Group 4 (severe impairment), n=8, all patients with response assessment
[22] = Group 5 (chronic dialysis), n=4, patients who received dexamethasone ⩾20 mg before carfilzomib doses
[23] = Group 5 (chronic dialysis), n=8, all patients with response assessment

## CC(C)C[C@H](NC(=O)[C@H](CCc1ccccc1)NC(=O)CN1CCOCC1)C(=O)N[C@@H](Cc1ccccc1)C(=O)N[C@@H](CC(C)C)C(=O)[C@@]1(C)CO1 [carfilzomib]
[1]; all groups, Days 1 and 15 of Cycle 1, within 24 h post-dosing
  total amount of carfilzomib recovered in the urine, of the administered dose: less than 1%
[1]; group with normal renal function, day 1 of Cycle 1, 15 mg/m^2 IV, post-dose urine collection, LC MS/MS
  mean total concentration of carfilzomib in urine: 0.157 mg
[2]; RBCs and peripheral blood mononuclear cells, one hour after the first dose, 15 mg/m^2, range across groups
  inhibition of proteasome CT-L activity from pre-dose levels: 73–87%
[2]; by the start of Cycle 2, cumulative inhibition during first treatment cycle
  recovery of proteasome CT-L activity in RBCs: little to no recovery
[2]; day 8 (5 days after the most recent dose) and beginning of Cycle 2 (12 days after dosing)
  recovery of proteasome activity in peripheral blood mononuclear cells: complete or near to complete
[3]; [7]
  Anemia, Grades 3/4: 2
  Decreased hemoglobin, Grades 3/4: 1
  Dyspnea, Grades 3/4: 0
  Fatigue, Grades 3/4: 2
  Hypokalemia, Grades 3/4: 1
  Lymphopenia, Grades 3/4: 2
  Pain, Grades 3/4: 0
  Pneumonia, Grades 3/4: 1
  Thrombocytopenia, Grades 3/4: 1
[3]; [8]
  Anemia, Grades 3/4: 4
  Decreased hemoglobin, Grades 3/4: 0
  Dyspnea, Grades 3/4: 0
  Fatigue, Grades 3/4: 1
  Hypokalemia, Grades 3/4: 1
  Lymphopenia, Grades 3/4: 3
  Pain, Grades 3/4: 2
  Pneumonia, Grades 3/4: 1
  Thrombocytopenia, Grades 3/4: 5
[3]; [9]
  Anemia, Grades 3/4: 5
  Decreased hemoglobin, Grades 3/4: 1
  Dyspnea, Grades 3/4: 2
  Fatigue, Grades 3/4: 2
  Hypokalemia, Grades 3/4: 0
  Lymphopenia, Grades 3/4: 1
  Pain, Grades 3/4: 3
  Pneumonia, Grades 3/4: 3
  Thrombocytopenia, Grades 3/4: 3
[3]; [10]
  Anemia, Grades 3/4: 2
  Decreased hemoglobin, Grades 3/4: 1
  Dyspnea, Grades 3/4: 1
  Fatigue, Grades 3/4: 1
  Hypokalemia, Grades 3/4: 1
  Lymphopenia, Grades 3/4: 2
  Pain, Grades 3/4: 0
  Pneumonia, Grades 3/4: 1
  Thrombocytopenia, Grades 3/4: 1
[3]; [11]
  Anemia, Grades 3/4: 1
  Decreased hemoglobin, Grades 3/4: 1
  Dyspnea, Grades 3/4: 1
  Fatigue, Grades 3/4: 1
  Hypokalemia, Grades 3/4: 1
  Lymphopenia, Grades 3/4: 1
  Pain, Grades 3/4: 0
  Pneumonia, Grades 3/4: 0
  Thrombocytopenia, Grades 3/4: 0
[3]; all patients, n=50
  Grade 3/4 anemia, incidence: 28.0%
  Grade 3/4 fatigue, incidence: 14.0%
  Grade 3/4 lymphopenia, incidence: 18.0%
  Grade 3/4 thrombocytopenia, incidence: 20.0%
[3]; in vivo
  AEs leading to dose reduction: 18.0%
  Clinical congestive heart failure: four
  Grade 3 neuropathy during the study: 2.0%
  Serious AE acute renal failure: 6.0%
  Serious AE congestive heart failure: 6.0%
  Serious AE dehydration: 6.0%
  Serious AE pneumonia: 16.0%
  Serious AEs, patients: 66.0%
  anemia of any grade, incidence: 50.0%
  diarrhea of any grade, incidence: 36.0%
  elevations in serum creatinine from Grade ⩽2 at baseline to Grade 3 at any point after beginning treatment: Five
  fatigue of any grade, incidence: 56.0%
  incidence of treatment-emergent or worsening neuropathy of any grade: 12.0%
  nausea of any grade, incidence: 36.0%
  patients with at least one treatment-emergent AE: 94.0%
  worsening of renal function to Grade 3: 12.0%
[3]; n=2 of 50
  Grade 3/4 infection: respiratory tract infection: 4.0%
  Grade 3/4 infection: sepsis: 4.0%
[3]; n=3 of 50
  Grade 3/4 infection: influenza: 6.0%
[3]; n=6 of 50
  Grade 3/4 infection: bacterial pneumonia: 12.0%
[3]; n=50, all attributed primarily to disease progression
  deaths on study or within 30 days of discontinuation of treatment: five
[3]; three patients of 50
  Serious AE influenza: 6.0%
[4]
  ECG effects on heart rate, atrioventricular conduction, cardiac depolarization (QT, PR, QRS intervals): no clinically relevant effects
[5]; [12]
  Complete response: 0 n (%)
  Minimal response: 3 (10.7) n (%)
  Progressive disease: 5 (17.9) n (%)
  Stable disease: 10 (35.7) n (%)
  Very good PR: 0 n (%)
[5]; All patients, n=47
  Overall response rate: 12 (25.5) n (%)
[5]; [13]
  Complete response: 0 n (%)
  Progressive disease: 10 (21.3) n (%)
  Stable disease: 21 (44.7) n (%)
  Very good PR: 0 n (%)
[5]; All patients, NE, not estimated due to censoring
  Duration of response, median (95% CI): 7.9 months
[5]; [14]
  Complete response: 0 n (%)
  Minimal response: 1 n (%)
  Progressive disease: 0 n (%)
  Stable disease: 3 (42.9) n (%)
  Very good PR: 0 n (%)
[5]; [15]
  Minimal response: 1 (9.1) n (%)
  Progressive disease: 1 (9.1) n (%)
[5]; Group 1 (normal renal function), NE, not estimated due to censoring
  Duration of response, median (95% CI): NE (2.0–NE)
[5]; [16]
  Complete response: 0 n (%)
  Minimal response: 1 (12.5) n (%)
  Progressive disease: 3 (37.5) n (%)
  Stable disease: 1 (12.5) n (%)
  Very good PR: 0 n (%)
[5]; Group 2 (mild impairment), n=11
  Overall response rate: 3 (27.3) n (%)
[5]; [17]
  Complete response: 0 n (%)
  Minimal response: 1 (9.1) n (%)
  Stable disease: 3 (27.3) n (%)
  Very good PR: 0 n (%)
[5]; Group 2 (mild impairment), NE, not estimated due to censoring
  Duration of response, median (95% CI): NE (4.2–NE)
[5]; [18]
  Complete response: 0 n (%)
  Minimal response: 0 n (%)
  Progressive disease: 0 n (%)
  Stable disease: 3 (75.0) n (%)
  Very good PR: 0 n (%)
[5]; Group 3 (moderate impairment), n=9
  Overall response rate: 2 (22.2) n (%)
[5]; [19]
  Complete response: 0 n (%)
  Minimal response: 0 n (%)
  Progressive disease: 3 (33.3) n (%)
  Stable disease: 4 (44.4) n (%)
  Very good PR: 0 n (%)
[5]; Group 3 (moderate impairment), NE, not estimated due to censoring
  Duration of response, median (95% CI): NE (2.3–NE)
[5]; [20]
  Complete response: 0 n (%)
  Minimal response: 1 (20.0) n (%)
  Progressive disease: 2 (40.0) n (%)
  Stable disease: 2 (40.0) n (%)
  Very good PR: 0 n (%)
[5]; [10]
  Overall response rate: 2 (25.0) n (%)
[5]; [21]
  Complete response: 0 n (%)
  Minimal response: 1 (12.5) n (%)
  Progressive disease: 2 (25.0) n (%)
  Stable disease: 3 (37.5) n (%)
  Very good PR: 0 n (%)
[5]; Group 4 (severe impairment), NE, not estimated due to censoring
  Duration of response, median (95% CI): NE (7.9–NE)
[5]; Group 5 (chronic dialysis)
  Duration of response, median (95% CI): 7.9 (6.5–8.5) months
[5]; [22]
  Complete response: 0 n (%)
  Minimal response: 0 n (%)
  Progressive disease: 0 n (%)
  Stable disease: 1 (25.0) n (%)
  Very good PR: 0 n (%)
[5]; [11]
  Overall response rate: 3 (37.5) n (%)
[5]; [23]
  Complete response: 0 n (%)
  Minimal response: 0 n (%)
  Progressive disease: 0 n (%)
  Stable disease: 4 (50.0) n (%)
  Very good PR: 0 n (%)
[5]; nine of 28 patients who received dexamethasone before each carfilzomib dose after Cycle 2
  Response improved to PR after the addition of dexamethasone: 32.1%
[6]
  Slope (95% CI) of linear regression of AUCinf as a function of creatinine clearance: 0.012 (−0.030, 0.054)
  Slope (95% CI) of linear regression of AUClast (h·ng/ml) as a function of creatinine clearance: 0.008 (−0.031, 0.048)
  Slope (95% CI) of linear regression of Cmax (ng/ml) as a function of creatinine clearance: 0.225 (−0.242, 0.692)
  Slope (95% CI) of linear regression of carfilzomib clearance (l/h) as a function of creatinine clearance: −0.607 (−2.129, 0.914)
[6]; iv
  CL: 110 L/h
  median terminal half life (t1/2): less than 60 min
